This is an account of results in patent US20140050778A1, “NUCLEIC ACID BINDING COMPOUNDS, METHODS OF MAKING, AND USE THEREOF” (UNIVERSITY OF ROCHESTER, priority 2010, published 2014).

Series [1] deals with yeast tRNA. As to the kind of experiment: Fluorescence titration control. The note with it: yeast tRNA titrated into a mixture of compounds 4 and 5. Format: binding. As to the method:
The benzo[g]quinoline moiety is fluorescent, with excitation and emission maxima at 362 nm and 439 nm respectively in methanol. Fluorescence titration binding measurements were performed on a Cary Eclipse fluorescence spectrophotometer using a 10 mm path-length semimicro quartz fluorescence cell with 400 μL sample holding capacity. Absorbance measurements were carried out on a UV-Visible spectrophotometer (Shimadzu, UV-1601PC) using a 1 mL (1 cm path-length) quartz cell. Spectroscopic grade anhydrous methanol used in the measurement of relative quantum yield of the 2-ethyl benzo[g]quinoline carboxylic acid was purchased from Alfa Aesar and was used without further purification. For these measurements, known procedures were used (Lee and Grissom, “Design, Synthesis, and Characterization of Fluorescent Cobalamin Analogues with High Quantum Efficiencies,” Org. Lett. 11:2499-2502 (2009); Joseph R. Lakowicz, Principles of Fluorescence Spectroscopy, 2nd edition (Kluwer Academic/Plenum Publishers, 1999), which are hereby incorporated by reference in their entirety). Briefly, RNA (10 μM stock) in HBS-N buffer was titrated into a solution of 1 μM compound in HBS-N. After each addition of RNA, ten minutes were allowed for equilibration before recording the change in fluorescence at 468.5 nm. […]
Selected equilibrium affinities for (CUG)10 were confirmed by fluorescence titration. […]

Series [2] relates to human fibroblasts. As to the kind of experiment: Cell permeability by fluorescence microscopy. The series is classed as cell-based. The settings on record: intrinsic fluorescence, 4 and 5 incubated as a mixture. Here is the method:
For cell permeability studies, human fibroblasts or mouse myoblasts grown to 80% confluence were exposed to compounds for 12 hours in a 96 well tissue culture plate. After removal of the culture media (DMEM, with 10% FBS, 1% pen-strep (GIBCO)) the cells were washed twice with PBS to remove excess compounds. Cells were then imaged while in buffer under a fluorescence microscope (Olympus IX70) in the 96-well plate using a 460 nm emission filter.
(§1) SPR and fluorescence titration experiments, performed using the protocol described in Examples 3 and 4 above, except using as the target a highly conserved RNA sequence responsible for regulating the production of the Gag-Pol polyprotein via a −1 ribosomal frameshift, which occurs along a “slippery sequence” in gag-pol mRNA (SEQ ID NO: 7). This “frameshift stimulatory sequence” (or “HIV-1 FSS”) consists of an upper stemloop and a lower stem, separated by a purine bulge in the most common types of HIV (FIG. 19). For the fluorescent titration experiments, the upper stemloop of SEQ ID NO: 7 was employed. Cell uptake and toxicity studies were carried out using human fibroblasts according to Example 5 above.

Series [3] relates to human fibroblasts. Kind of series: MTT toxicity assay. Format: cell-based. The note with it: compounds 4 and 5 measured as a mixture, concentrations up to 500 μM. Here is the method: (§2) For toxicity studies, mouse myoblasts or human fibroblasts were plated in a 96-well tissue culture plate in DMEM (10% fetal bovine serum, 100 units/ml penicillin, […]) and allowed to grow to approximately 80% confluence at 37° C. under CO2. Varying compound concentrations (up to 1 mM) were incubated with cells (48 hours, 37° C.). Media was then removed, and 3-(4,5-dimethylthiazol-2-yl)-2,5-diphenyltetrazolium bromide (“MTT”) in media was added to each well and incubated at 37° C. for 4 h. After removal of the MTT media, isopropanol (100 pp was added, and absorbance was measured at 600 nm on a Modulus microplate reader (Turner Biosystems).
as §1

In series [4] the test system is mouse myoblasts. As to the kind of experiment: MTT toxicity assay. Format: cell-based. The settings on record: individually. As to the method: as §2

For `CCc1nc2cc3ccccc3cc2cc1C(=O)N1CCC[C@H]1C(=O)N[C@@H](C/C=C/C[C@H](NC(=O)[C@@H]1CCCN1C(=O)c1cc2cc3ccccc3cc2nc1CC)C(=O)N[C@@H](CCCCN)C(=O)NCCCN)C(=O)N[C@@H](CCCCN)C(=O)NCCCN` [Compound 5], in series [1], the “binding of yeast tRNA” value is listed as “No binding”. Further, in series [2], the “cell membrane penetration / localization” value is “Localization is shown, especially in the nucleus of cells”. For the same compound, the “toxicity (MTT)” value is “no significant toxicity” in series [3] and “increasing toxicity was observed in mouse myoblasts above 100 μM” in series [4].
Take `CCc1nc2cc3ccccc3cc2cc1C(=O)N1CCC[C@H]1C(=O)N[C@@H](C/C=C\C[C@H](NC(=O)[C@@H]1CCCN1C(=O)c1cc2cc3ccccc3cc2nc1CC)C(=O)N[C@@H](CCCCN)C(=O)NCCCN)C(=O)N[C@@H](CCCCN)C(=O)NCCCN` [Compound 4]: the “binding of yeast tRNA” value in series [1] is recorded as “No binding”. The “cell membrane penetration / localization” value in series [2] was “Localization is shown, especially in the nucleus of cells”. For the same compound, the “toxicity (MTT)” value in series [3] is given as “no significant toxicity”; in series [4] it was “increasing toxicity was observed in mouse myoblasts above 100 μM”.
